In brackets after ≈: the same amount, converted by molar mass.
What was measured:
Aspergillus fumigatus = test: In vitro antifungal activity against Aspergillus fumigatus; type: functional
Candida albicans = test: In vitro antifungal activity against Candida albicans 124; type: functional
Candida parapsilosis = test: In vitro antifungal activity against Candida parapsilosis 39; type: functional; details: Lodderomyces parapsilosis
Microsporum canis = test: In vitro antifungal activity against Microsporum canis; type: functional
Sporothrix schenckii = test: In vitro antifungal activity against Sporothrix schenck ii; type: functional
Trichophyton benhamiae = test: In vitro antifungal activity against Trichophyton mentagrophytes; type: functional, Arthroderma benhamiae

**Q.** With `CC(C/C=C/C#CC(C)(C)C(N)=O)Cc1cccc2ccccc12` (stereo not given) as the compound, how does the MIC (Aspergillus fumigatus) read?
**A.** > 100 µg/mL

**Q.** What about the MIC (Candida albicans) of the same compound?
**A.** > 100 µg/mL

**Q.** What about the MIC (Candida parapsilosis) of the same compound?
**A.** > 100 µg/mL

**Q.** And the MIC (Microsporum canis)?
**A.** > 100 µg/mL

**Q.** What about the MIC (Sporothrix schenckii) of the same compound?
**A.** > 100 µg/mL

**Q.** And the MIC (Trichophyton benhamiae)?
**A.** > 100 µg/mL

**Q.** For `CC(C/C=C/C#CC(C)(C)N(C)C)Cc1cccc2ccccc12` (stereo not given), which MIC (Aspergillus fumigatus) is on record?
**A.** 12.5 µg/mL (≈ 39.1 µM)

**Q.** And the MIC (Candida albicans)?
**A.** 50 µg/mL (≈ 156 µM)

**Q.** And the MIC (Candida parapsilosis)?
**A.** 6.25 µg/mL (≈ 19.6 µM)

**Q.** What about the MIC (Microsporum canis) of the same compound?
**A.** 0.2 µg/mL (≈ 0.626 µM)

**Q.** And the MIC (Sporothrix schenckii)?
**A.** 3.1 µg/mL (≈ 9.7 µM)

**Q.** And the MIC (Trichophyton benhamiae)?
**A.** 0.1 µg/mL (≈ 0.313 µM)

**Q.** For `CC(=O)NC(C)(C)C#C/C=C/CC(C)Cc1cccc2ccccc12` (stereo not given), which MIC (Aspergillus fumigatus) is on record?
**A.** > 50 µg/mL

**Q.** What about the MIC (Candida albicans) of the same compound?
**A.** > 50 µg/mL

**Q.** What about the MIC (Candida parapsilosis) of the same compound?
**A.** > 50 µg/mL

**Q.** And the MIC (Microsporum canis)?
**A.** > 50 µg/mL

**Q.** What about the MIC (Sporothrix schenckii) of the same compound?
**A.** > 50 µg/mL

**Q.** And the MIC (Trichophyton benhamiae)?
**A.** > 50 µg/mL

**Q.** For `CC(C/C=C/C#CC(C)(C)C)Cc1cccc2ccccc12` (stereo not given), which MIC (Aspergillus fumigatus) is on record?
**A.** > 100 µg/mL

**Q.** And the MIC (Candida albicans)?
**A.** > 100 µg/mL

**Q.** What about the MIC (Candida parapsilosis) of the same compound?
**A.** > 100 µg/mL

**Q.** What about the MIC (Microsporum canis) of the same compound?
**A.** 3.1 µg/mL (≈ 10.7 µM)

**Q.** What about the MIC (Sporothrix schenckii) of the same compound?
**A.** > 100 µg/mL

**Q.** And the MIC (Trichophyton benhamiae)?
**A.** 0.4 µg/mL (≈ 1.38 µM)

**Q.** `CNC(=O)C(C)(C)C#C/C=C/CC(C)Cc1cccc2ccccc12` (stereo not given) was tested. Which MIC (Aspergillus fumigatus) did it give?
**A.** > 100 µg/mL

**Q.** What about the MIC (Candida albicans) of the same compound?
**A.** > 100 µg/mL

**Q.** And the MIC (Candida parapsilosis)?
**A.** > 100 µg/mL

**Q.** And the MIC (Microsporum canis)?
**A.** 1.6 µg/mL (≈ 4.8 µM)

**Q.** What about the MIC (Sporothrix schenckii) of the same compound?
**A.** > 100 µg/mL

**Q.** What about the MIC (Trichophyton benhamiae) of the same compound?
**A.** 0.4 µg/mL (≈ 1.2 µM)

**Q.** What does the source list for `CC(C/C=C/C#CC(C)(C)CN)Cc1cccc2ccccc12` (stereo not given)?
**A.** MIC (Aspergillus fumigatus): 50 µg/mL (≈ 164 µM); MIC (Candida albicans): > 50 µg/mL; MIC (Candida parapsilosis): > 50 µg/mL; MIC (Microsporum canis): 25 µg/mL (≈ 81.8 µM); MIC (Sporothrix schenckii): 25 µg/mL (≈ 81.8 µM); MIC (Trichophyton benhamiae): 6.25 µg/mL (≈ 20.5 µM)

**Q.** Which MIC (Aspergillus fumigatus) does the source give for `COC(=O)C(C)(C)C#C/C=C/CC(C)Cc1cccc2ccccc12` (stereo not given) here?
**A.** > 100 µg/mL

**Q.** What about the MIC (Candida albicans) of the same compound?
**A.** > 100 µg/mL

**Q.** What about the MIC (Candida parapsilosis) of the same compound?
**A.** > 100 µg/mL

**Q.** And the MIC (Microsporum canis)?
**A.** 0.8 µg/mL (≈ 2.39 µM)

**Q.** What about the MIC (Sporothrix schenckii) of the same compound?
**A.** > 100 µg/mL

**Q.** And the MIC (Trichophyton benhamiae)?
**A.** 0.1 µg/mL (≈ 0.299 µM)

**Q.** `CC(C/C=C/C#CC(C)(C)C#N)Cc1cccc2ccccc12` (stereo not given) was tested. Which MIC (Aspergillus fumigatus) did it give?
**A.** > 100 µg/mL

**Q.** And the MIC (Candida albicans)?
**A.** > 100 µg/mL

**Q.** And the MIC (Candida parapsilosis)?
**A.** > 100 µg/mL

**Q.** And the MIC (Microsporum canis)?
**A.** 12.5 µg/mL (≈ 41.5 µM)

**Q.** What about the MIC (Sporothrix schenckii) of the same compound?
**A.** > 100 µg/mL

**Q.** And the MIC (Trichophyton benhamiae)?
**A.** 0.4 µg/mL (≈ 1.33 µM)

**Q.** How did the MIC (Aspergillus fumigatus) turn out when `CC(C/C=C/C#CC(C)(C)N)Cc1cccc2ccccc12` (stereo not given) was run?
**A.** 25 µg/mL (≈ 85.8 µM)

**Q.** And the MIC (Candida albicans)?
**A.** > 100 µg/mL

**Q.** What about the MIC (Candida parapsilosis) of the same compound?
**A.** > 100 µg/mL

**Q.** What about the MIC (Microsporum canis) of the same compound?
**A.** 3.1 µg/mL (≈ 10.6 µM)

**Q.** What about the MIC (Sporothrix schenckii) of the same compound?
**A.** 12.5 µg/mL (≈ 42.9 µM)

**Q.** And the MIC (Trichophyton benhamiae)?
**A.** 1.6 µg/mL (≈ 5.49 µM)

**Q.** Which MIC (Aspergillus fumigatus) does the source give for `CC(C/C=C/C#CC(C)(C)O)Cc1cccc2ccccc12` (stereo not given) here?
**A.** > 100 µg/mL

**Q.** What about the MIC (Candida albicans) of the same compound?
**A.** > 100 µg/mL

**Q.** What about the MIC (Candida parapsilosis) of the same compound?
**A.** > 100 µg/mL

**Q.** And the MIC (Microsporum canis)?
**A.** > 100 µg/mL

**Q.** And the MIC (Sporothrix schenckii)?
**A.** > 100 µg/mL

**Q.** What about the MIC (Trichophyton benhamiae) of the same compound?
**A.** 3.1 µg/mL (≈ 10.6 µM)

**Q.** For `CC(C/C=C/C#CC(C)(C)N(C)c1ccccc1)Cc1cccc2ccccc12` (stereo not given), which MIC (Aspergillus fumigatus) is on record?
**A.** > 100 µg/mL

**Q.** What about the MIC (Candida albicans) of the same compound?
**A.** > 100 µg/mL

**Q.** And the MIC (Candida parapsilosis)?
**A.** > 100 µg/mL

**Q.** And the MIC (Microsporum canis)?
**A.** > 100 µg/mL

**Q.** What about the MIC (Sporothrix schenckii) of the same compound?
**A.** > 100 µg/mL

**Q.** And the MIC (Trichophyton benhamiae)?
**A.** > 100 µg/mL

**Q.** What does the source list for `CC(C/C=C/C#CC(C)(C)[N+](C)(C)C)Cc1cccc2ccccc12` (stereo not given)?
**A.** MIC (Aspergillus fumigatus): > 100 µg/mL; MIC (Candida albicans): 25 µg/mL; MIC (Candida parapsilosis): 100 µg/mL; MIC (Microsporum canis): > 100 µg/mL; MIC (Sporothrix schenckii): 12.5 µg/mL; MIC (Trichophyton benhamiae): > 100 µg/mL

**Q.** `CC(C/C=C/C#CC(C)(C)C(=O)O)Cc1cccc2ccccc12` (stereo not given) was tested. Which MIC (Aspergillus fumigatus) did it give?
**A.** > 100 µg/mL

**Q.** And the MIC (Candida albicans)?
**A.** > 100 µg/mL

**Q.** And the MIC (Candida parapsilosis)?
**A.** > 100 µg/mL

**Q.** What about the MIC (Microsporum canis) of the same compound?
**A.** > 100 µg/mL

**Q.** What about the MIC (Sporothrix schenckii) of the same compound?
**A.** > 100 µg/mL

**Q.** And the MIC (Trichophyton benhamiae)?
**A.** > 100 µg/mL

**Q.** For `CC(C/C=C/C#CC(C)(C)CO)Cc1cccc2ccccc12` (stereo not given), which MIC (Aspergillus fumigatus) is on record?
**A.** > 100 µg/mL

**Q.** What about the MIC (Candida albicans) of the same compound?
**A.** > 100 µg/mL

**Q.** What about the MIC (Candida parapsilosis) of the same compound?
**A.** > 100 µg/mL

**Q.** What about the MIC (Microsporum canis) of the same compound?
**A.** 100 µg/mL (≈ 326 µM)

**Q.** What about the MIC (Sporothrix schenckii) of the same compound?
**A.** > 100 µg/mL

**Q.** And the MIC (Trichophyton benhamiae)?
**A.** 3.1 µg/mL (≈ 10.1 µM)

**Q.** `CN(C/C=C/c1ccccc1)Cc1cccc2ccccc12` [NAFTIFINE] was tested. Which MIC (Aspergillus fumigatus) did it give?
**A.** 12.5 µg/mL (≈ 43.5 µM)

**Q.** What about the MIC (Candida parapsilosis) of the same compound?
**A.** 1.6 µg/mL (≈ 5.57 µM)

**Q.** And the MIC (Microsporum canis)?
**A.** 0.1 µg/mL (≈ 0.348 µM)

**Q.** And the MIC (Sporothrix schenckii)?
**A.** 1.6 µg/mL (≈ 5.57 µM)

**Q.** What about the MIC (Trichophyton benhamiae) of the same compound?
**A.** 0.05 µg/mL (≈ 0.174 µM)

**Q.** For `CN(C/C=C/C#CC(C)(C)C)Cc1cccc2ccccc12` [TERBINAFINE], which MIC (Aspergillus fumigatus) is on record?
**A.** 0.8 µg/mL (≈ 2.75 µM)

**Q.** And the MIC (Candida albicans)?
**A.** 25 µg/mL (≈ 85.8 µM)

**Q.** What about the MIC (Candida parapsilosis) of the same compound?
**A.** 0.8 µg/mL (≈ 2.75 µM)

**Q.** What about the MIC (Microsporum canis) of the same compound?
**A.** 0.006 µg/mL (≈ 0.0206 µM)

**Q.** And the MIC (Sporothrix schenckii)?
**A.** 0.4 µg/mL (≈ 1.37 µM)

**Q.** What about the MIC (Trichophyton benhamiae) of the same compound?
**A.** 0.003 µg/mL (≈ 0.0103 µM)
